Here are results for 104 compounds from PubChem BioAssay AID1996.

In brackets after ≈: the same amount, converted by molar mass.

For this series the following is noted: buffer; pH 7.4; 200.0 µM.
`O=C(COc1ccc(F)cc1)NCCNC(=O)COc1ccc(F)cc1` yielded a solubility (kinetic) of 0.0112 mg/mL (≈ 30.7 µM).
Under `COc1ccc(OC)c(Nc2nc(C)nc3c2oc2ccccc23)c1` stands below 0.0002 mg/mL; under `Cc1ccccc1N1CCN(CC(=O)NCc2ccc(Cl)cc2)CC1`, 0.0196 mg/mL (≈ 54.8 µM); under `COc1ccc(CCNC(=O)C2CCCN(c3ncccn3)C2)cc1` (centres undefined), 0.049 mg/mL (≈ 144 µM).
Under `CCOc1cccc(CNCc2ccncc2)c1` stands 0.0274 mg/mL (≈ 113 µM); under `CCN1C(=O)N(c2ccc(C(C)=O)cc2)S(=O)(=O)c2ccccc21`, 0.0476 mg/mL (≈ 138 µM); under `COc1ccc(C(=S)N2CCOCC2)cc1OC(=O)c1ccccc1`, 0.0236 mg/mL (≈ 66 µM).
With `O=C(NN1CCOCC1)c1ccccc1F` the figure was above 0.0336 mg/mL; with `O=C(O)c1cc2n(n1)C(C(F)(F)F)CC(C1CC1)N2` (centres undefined), above 0.0413 mg/mL.
Take `CCN1C(=O)C(=O)N(Cc2ccc(OC)c(F)c2)C1=O`: the kinetic solubility came to 0.0404 mg/mL (≈ 144 µM).
The compound `Cc1cc(C)nc(SCC(=O)Nc2nonc2N)n1` displayed a solubility (kinetic) above 0.042 mg/mL.
As for `CC(C)(C)NC(=O)CN(C(=O)C1CSC(=O)C1)c1ccccc1F` (centres undefined), the solubility (kinetic) came out at 0.0333 mg/mL (≈ 94.5 µM).
The compound `CC(=O)c1cccc(NC(=O)CCC(=O)c2ccc(F)cc2)c1` yielded a solubility (kinetic) of 0.0038 mg/mL (≈ 12.1 µM).
`CC1(C2CC2)NC(=O)N(CC(=O)NCC(=O)Nc2ccc(F)c(F)c2F)C1=O` (centres undefined): the solubility (kinetic) is above 0.0598 mg/mL.
With `O=C(NCC1CCCCC1)c1ccc(=O)[nH]c1` the figure was above 0.0351 mg/mL; with `c1ccc(CCNc2ncnc3sccc23)nc1`, above 0.0384 mg/mL.
Under `Cc1cc(O)c(C(=O)Cc2csc(C)n2)c(O)c1` stands 0.0041 mg/mL (≈ 15.6 µM); under `Cc1cc(C(=O)Nc2cc(C(C)(C)C)on2)c(C)o1`, 0.0038 mg/mL (≈ 14.5 µM); under `CCCOc1ccc(C(=O)NCCC(=O)NCCCC(=O)O)cc1`, above 0.0505 mg/mL.
The compound `CN(C(=O)CO/N=C/c1ccc(Cl)cc1)c1ccccc1` returned a kinetic solubility of 0.0446 mg/mL (≈ 147 µM).
With `CC[C@@H](Nc1ncnc2c1oc1ccccc12)C(=O)O` the figure was 0.0299 mg/mL (≈ 110 µM).
The compound `CCOC(=O)c1sc(NC(=O)C2CC(=O)N(c3ccc(OCC)cc3)C2)nc1C` (centres undefined) yielded a solubility (kinetic) of 0.0099 mg/mL (≈ 23.7 µM).
Under `O=C(Nc1cccc([N+](=O)[O-])c1)C1CC(=O)N(C2CCCCC2)C1` (centres undefined) stands 0.0485 mg/mL (≈ 146 µM); under `O=C(O)CCc1nc2cc(Cl)ccc2n(Cc2ccccc2)c1=O`, above 0.0514 mg/mL.
As for `COc1cccc(C(=O)NC2CCCc3ccccc32)c1OC` (centres undefined), the kinetic solubility amounted to 0.0316 mg/mL (≈ 101 µM).
`COc1ccccc1/C=C/C(=O)OCC(=O)N1CCCCC1` registered a solubility (kinetic) above 0.0455 mg/mL.
With `CC(C)Cc1nnc(NC(=O)CCC(=O)NC2CC2)s1` the figure was above 0.0445 mg/mL; with `Cc1nc(N2CCN(c3ccccc3)CC2)[nH]c(=O)c1C`, 0.0395 mg/mL (≈ 139 µM); with `COc1ccc(NCCc2ccccn2)cc1.Cl`, above 0.0452 mg/mL.
Turning to `Cc1nc2cc(N)ccc2n1C1CCCCC1.Cl`, the kinetic solubility is above 0.0453 mg/mL.
With `Cc1ccc(-c2cc(C(=O)Nc3cc(C)ccc3O)no2)cc1` the figure was below 0.0003 mg/mL; with `CCc1ccc(OC(=O)c2cccnc2)cc1`, 0.0268 mg/mL (≈ 118 µM).
As to `CCOc1ccc(CCNC(=O)/C=C/c2ccco2)cc1OCC`, the kinetic solubility was above 0.0494 mg/mL.
The compound `COc1cc2nc(C(C)(C)C)oc(=O)c2cc1OC` came in with a kinetic solubility above 0.0395 mg/mL.
With `COc1ccc(-n2c(SCC(=O)N(C)C3CCS(=O)(=O)C3)nc3ccc(O)cc3c2=O)cc1OC` (centres undefined) the figure was 0.0353 mg/mL (≈ 67.9 µM); with `CCOC(=O)c1ccc(Nc2nc(C)cc(C)n2)cc1`, 0.0002 mg/mL (≈ 0.737 µM); with `O=[N+]([O-])c1cccc(P(=O)(O)c2cccc([N+](=O)[O-])c2)c1`, above 0.0462 mg/mL.
The compound `Cc1ccc(C)c(NC(=O)COC(=O)Cc2ccsc2)c1` gave a solubility (kinetic) of 0.0425 mg/mL (≈ 140 µM).
`O=C(NCCc1ccc(O)c(O)c1)C1COc2ccccc2O1` (centres undefined): the kinetic solubility is above 0.0473 mg/mL.
Under `NC(=O)c1ccc(NC(=O)COC(=O)c2cc3ccccc3cc2O)cc1` stands 0.0101 mg/mL (≈ 27.7 µM).
With `O=C(O)c1ccccc1Sc1ncnc2sccc12` the figure was above 0.0433 mg/mL.
Turning to `O=C(Nc1ccccc1O)C(c1ccccc1)c1ccccc1`, the solubility (kinetic) was 0.009 mg/mL (≈ 29.7 µM).
On to `C=CCSc1nc2c(c(=O)[nH]1)C(c1ccccc1)C(C#N)=C(N)O2` (centres undefined), for which the solubility (kinetic) is 0.0487 mg/mL (≈ 144 µM).
Turning to `NC(N)=S`, the solubility (kinetic) was above 0.0114 mg/mL.
`Cc1ccc(NC(=O)C2CC(=O)N(C(C)C)C2)cc1Cl` (centres undefined): the kinetic solubility is above 0.0442 mg/mL.
Under `CC(C)NC(=O)CSc1ncccc1-c1nc2ccccc2[nH]1` stands 0.0469 mg/mL (≈ 144 µM); under `O=C(Nc1cc(Cl)ccc1Cl)c1ccco1`, 0.0076 mg/mL (≈ 29.7 µM); under `CC(C)NC(=O)CNc1ccc(C(F)(F)F)cc1[N+](=O)[O-]`, 0.0134 mg/mL (≈ 43.9 µM).
In the case of `NC(=O)C1CCN(C(=O)c2ccc(Cl)c(S(=O)(=O)N3CCCCCC3)c2)CC1`, the kinetic solubility is above 0.0642 mg/mL.
With `Cc1cc(C(F)(F)F)nn1CC(=O)N(C)c1ccccc1`, the solubility (kinetic) was above 0.0446 mg/mL.
Under `Cc1ccc(-n2nc(C)cc2NC(=O)CC#N)cc1` stands above 0.0381 mg/mL; under `O=C(COc1ccc(F)cc1Cl)N1CCN(C(=O)c2cccs2)CC1`, above 0.0574 mg/mL.
With `Cc1cccc(/C(N)=N/OC(=O)c2ccoc2C)c1` the figure was 0.038 mg/mL (≈ 147 µM); with `CCS(=O)(=O)N1CCC(C(=O)Oc2ccccc2)CC1`, 0.0391 mg/mL (≈ 131 µM); with `Cc1cccc(C)c1OCC(=O)Nc1ccccc1C(F)(F)F`, 0.0016 mg/mL (≈ 4.95 µM).
Under `S=c1sc2c(Cl)ncnc2n1-c1ccccc1` stands 0.0083 mg/mL (≈ 29.7 µM); under `Cc1ccc(NS(=O)(=O)c2ccc(NC(=O)c3ccccc3C(=O)O)cc2)cc1C`, above 0.0637 mg/mL.
`COC(=O)c1cc(=O)c2cccc(OC)c2[nH]1` registered a solubility (kinetic) above 0.035 mg/mL.
As for `CC(C)C(=O)Nc1ccc(-c2nc3ncccc3o2)cc1`, the kinetic solubility came out at 0.0222 mg/mL (≈ 78.9 µM).
`Cc1cccc(NC(=O)c2cccnc2Cl)n1` showed a solubility (kinetic) above 0.0372 mg/mL.
With `N#Cc1ccc(C(=O)N2CCN(C(=O)C3CCCO3)CC2)cc1` (centres undefined) the figure was above 0.047 mg/mL; with `CN(CCO)C(=O)c1ccc(-c2nn(C)c(=O)c3ccccc23)cc1`, above 0.0506 mg/mL; with `CC(=O)c1cccc(NC(=S)N2CCc3ccccc32)c1`, 0.0031 mg/mL (≈ 10.5 µM).
Under `C/C(=N/OC(=O)c1cccc(C(F)(F)F)c1)c1cnccn1` stands 0.0035 mg/mL (≈ 11.3 µM).
Under `CCC(C)Nc1nc(C)nc2c1oc1ccccc12.Cl` (centres undefined) stands 0.0413 mg/mL.
Take `Cc1ccc(S(=O)(=O)NC(=O)c2ccccc2F)cc1`: the kinetic solubility is above 0.044 mg/mL.
Take `O=C(O)C(Cc1ccccc1)N=C(NS(=O)(=O)c1ccccc1)c1ccccc1` (centres undefined): the kinetic solubility was above 0.0613 mg/mL.
Turning to `CCc1cccc(C)c1NC(=O)c1ccc2c(c1)CCN2S(C)(=O)=O`, the kinetic solubility was 0.0193 mg/mL (≈ 53.8 µM).
`Cc1ccc(S(=O)(=O)Nc2c(C)cc(C)nc2Cl)cc1` had a kinetic solubility above 0.0466 mg/mL.
Under `CCOC(=O)CN1C(=O)C(=O)N(Cc2ccccc2F)C1=O` stands above 0.0462 mg/mL; under `CCCn1c(C(=O)c2ccc(OC)cc2)nc2ccccc21`, 0.0017 mg/mL (≈ 5.78 µM); under `Cc1ccc(C23CC4CC(CC(CN)(C4)C2)C3)cc1.Cl`, above 0.0438 mg/mL.
With `Cn1c(SCCc2ccc([N+](=O)[O-])cc2)nccc1=O` the figure was 0.0259 mg/mL (≈ 88.9 µM); with `Cc1ccc2cc(NC(=O)c3ccc(C(C)(C)C)cc3)ccc2n1`, below 0.0003 mg/mL; with `CCCCOc1ccc(OCCCN2CCOCC2)cc1.Cl`, above 0.0495 mg/mL.
With `C/C(=C\c1ccccc1)CN1CCN(C)CC1` the figure was 0.0181 mg/mL (≈ 78.6 µM); with `CCCOc1ccc(C(C)=O)cc1Cc1c(O)[nH]c(=S)[nH]c1=O`, 0.0294 mg/mL (≈ 87.9 µM).
In turn, `COc1cccc(/C=N/N2CCN(Cc3ccccc3)CC2)c1O` displayed a kinetic solubility above 0.0488 mg/mL.
With `CC1CN(C(=S)NC(=O)c2ccc(Cl)cc2)CC(C)O1` (centres undefined) the figure was above 0.0469 mg/mL; with `CC1CC(C)(C)NC(=S)N1CCC(=O)NCc1ccc(F)cc1` (centres undefined), above 0.0506 mg/mL.
With `COc1cccc(OCCn2cc(C(C)=O)c3ccccc32)c1` the figure was 0.0109 mg/mL (≈ 35.2 µM).
With `Cc1ccc(/C(O)=C2\C(=O)C(=O)N(C)C2c2ccc([N+](=O)[O-])cc2)cc1` (centres undefined) the figure was above 0.0529 mg/mL; with `COC(OC)c1ccc(C#N)c(SCc2ccc(C)cc2)n1`, 0.0004 mg/mL (≈ 1.27 µM); with `O=C(c1ccncc1)N1CCN(S(=O)(=O)c2ccccc2F)CC1`, above 0.0524 mg/mL.
`O=C(COC(=O)/C=C/c1ccc([N+](=O)[O-])cc1)NCc1cccs1`: the solubility (kinetic) was determined as 0.0042 mg/mL (≈ 12.1 µM).
For `CNc1nc(Cl)c(SC)c(NCc2cccc(OC)c2)n1`, the kinetic solubility was determined as 0.001 mg/mL (≈ 3.08 µM).
Under `O=C(Cc1ccc([N+](=O)[O-])cc1)NCc1ccccn1` stands above 0.0407 mg/mL; under `COc1ccc(NC(=O)c2ccc3c(c2)OCO3)cc1`, 0.0038 mg/mL (≈ 14 µM); under `O=C(c1cc(-c2ccncc2)nc2ccccc12)N1CCN(Cc2ccccc2)CC1`, above 0.0613 mg/mL.
Take `CC(CCc1ccccc1)NC(=O)COC(=O)c1cccnc1Cl` (centres undefined): the solubility (kinetic) is above 0.052 mg/mL.
Consider `Br.COC(=O)CN1C2=NCCCN2c2ccccc21`, for which the solubility (kinetic) is above 0.0489 mg/mL.
With `COc1ccc(CC(=O)Nc2ccc3nc(SC)sc3c2)cc1OC` the figure was 0.0343 mg/mL (≈ 91.6 µM).
Under `CN(C)c1ncc(S(=O)(=O)c2ccccc2)c(=O)[nH]1` stands above 0.0419 mg/mL; under `Cc1ccc(O)c(CO)n1`, above 0.0209 mg/mL.
As for `COc1ccc(NC(=O)c2ccccc2-c2ccccc2C(=O)O)cc1`, the kinetic solubility was above 0.0521 mg/mL.
Under `COc1ccc(CC(=O)NCCC2=CCCCC2)cc1` stands above 0.041 mg/mL; under `CC(=O)N1CCN(C(=S)NC(=O)c2ccc(F)cc2)CC1`, above 0.0464 mg/mL; under `COc1cc2c(cc1OC)CN(CC(=O)Nc1ccc(F)cc1F)CC2`, 0.044 mg/mL (≈ 121 µM).
`COc1ccc(CNc2cc(NCCCO)c([N+](=O)[O-])c3nonc23)cc1` showed a solubility (kinetic) of 0.0457 mg/mL (≈ 122 µM).
With `O=C(O)/C=C/C(=O)Nc1ccc(S(=O)(=O)N2CCCC2)cc1` the figure was above 0.0487 mg/mL; with `Cc1ccccc1NS(=O)(=O)c1cccc2nsnc12`, above 0.0458 mg/mL.
`O=C(Cc1c(F)cccc1Cl)NCc1cccnc1`: the solubility (kinetic) was above 0.0418 mg/mL.
With `CC(C)Nc1c([N+](=O)[O-])c(=O)oc2ccccc12` the figure was 0.0264 mg/mL (≈ 106 µM); with `O=C(NS(=O)(=O)c1ccc(Cl)s1)c1ccccc1`, above 0.0453 mg/mL.
